Test system: soybean explants
Assay: Auxin effect on transformation efficiency in soybean explants (disarmed A. rhizogenes, root induction and selection medium)
Assay type: cell-based
Conditions: for transformation efficiency compared to control with no auxin: cotyledons from William 82 as explants
Description: Clean soybean seeds from soybean cultivar were sterilized in a chamber with chlorine gas produced by adding 3.5 ml 12N HCl drop wise into 100 ml bleach. All operations were conducted in a fume hood. After 24 hours in the chamber, seeds were removed and used immediately or stored at room temperature until use. Discolored seeds or cracked seeds were removed. To imbibe seeds, warm GM medium was poured around seeds until the seeds were entirely covered by the medium. Seedlings were grown in the light for 5-7 days until the epicotyl was extended beyond the cotyledons. Seedlings can be stored at 4° C. overnight before being used in transformation. The Germination Medium (GM) comprises: 1×B5 salts and vitamins, 1×MS iron stock, 2% sucrose, and 0.8% Noble agar at pH 5.8. As an alternative, soybean seeds can be germinated in 1% agar (50 ml) in Petri dishes for 7 days before Agrobacterium inoculation.
Three days before inoculation, a disarmed Agrobacterium culture, for example, the disarmed A. rhizogenes strain K599 liquid culture, was placed in 5 ml LB+Kan50 (containing 50 ug/ml Kanamycin) media in a 28° C. shaker (225 rpm) overnight. The next day, 1 ml of the culture was taken and spread onto an LB+Kan50 agar plate. The plates were incubated in a 28° C. incubator for two days. At the end of the two-day period the plates were covered with thick colonies. One plate was prepared for every 50 explants to be inoculated.
Soybean seedlings had elongated hypocotyls approximately 3 to 5 cm in length with visible epicotyls. The explants were then prepared by removing the epicotyls and part of the hypocotyls. The explant contained one or two cotyledons, an axillary meristem and the hypocotyl about 0.5 cm to about 3 cm in length. The seed coat was removed to facilitate cotyledon development. The cut end of the hypocotyl was the target for transformation/infection.
Alternatively, cotyledons containing the proximal end from its connection with the seedlings were used as another type of explant for transformation. The cut end was the target for Agrobacterium inoculation.
After the explants were cut off the seedlings, the cut end was immediately dipped onto the disarmed thick A. rhizogenes colonies prepared above so that the colonies were visible on the cut end. Alternatively, the explants can be immersed in the disarmed A. rhizogenes liquid culture for 30 minutes. The explants were then placed onto 1% agar in Petri dishes for co-cultivation. Approximately 10 explants were placed in one dish. The dishes were sealed with Saran wrap and co-cultured at 25-27° C. under light for 6-8 days.
After the transformation and co-cultivation step, soybean explants were transferred to rooting induction medium with a selection agent, for example, S-B5-605 or S-B5-607 for Bar gene selection (De Block et al., EMBO J. 6:2513-2518, 1987), or S-B5-708 for an AHAS mutant gene (Sathasivan et al., Plant Phys. 97:1044-50, 1991) selection, in Petri dishes. The cut end was inserted into the medium so that the callus developed from the cut end in the future was just below the medium surface. Six to nine explants were placed in each Petri dish. Cultures were maintained in the same condition as in the co-cultivation step.
The S-B5-605 medium comprises: 0.5×B5 salts, 3 mM MES, 2% sucrose, 1×B5 vitamins, 400 μg/ml Timentin, 0.8% Noble agar, 1 mg/1 IBA and 3 μg/ml Glufosinate Ammonion (selection agent for Bar gene) at pH 5.8. The S-MS-607 medium comprises: 0.2×MS salts and B5 vitamins, 2% sucrose, 400 mg/l Timentin, and 3 mg/L Glufosinate Ammonium at pH5.8. The S-B5-708 medium comprises: 0.5×B5 salts, 3 mM MES, 2% sucrose, 1×B5 vitamins, 400 μg/ml Timentin, 0.8% Noble agar, and 1 μM Imazapyr (selection agent for AHAS gene) (BASF Corporation, Florham Park, N.J.) at pH5.8.
Two to three weeks after the selection and root induction, transformed roots were formed on the cut ends of the explants. […]

Row | SMILES | transgenic roots obtained from hypocotyl explants (control, 0-1 mg/l IBA in the rooting induction and selection medium) | transformation efficiency compared to control with no auxin (3 mg/l IBA) | transformation efficiency (high concentration of IBA, 3 to 5 mg/l, in the medium) | transformation efficiency (soybean hypocotyl and cotyledon explants, medium with 1 mg/l IBA compared to no auxin) | transformation efficiency (NAA 1 mg/l in the medium) | transformation efficiency compared to control with no auxin (1 mg/l NAA) | transgenic roots obtained from hypocotyl explants (infected explants cultured and selected in medium containing 1 mg/l NAA)
1 | O=C(O)CCCc1c[nH]c2ccccc12 [IBA, indole-3-butyric acid] | 1-5 | doubled | dramatically increased | similar |  |  | 
2 | O=C(O)Cc1cccc2ccccc12 [NAA, napthalene acetic acid] |  |  |  |  | dramatically increased | doubled | more than 20
